Reference: patent publication US12479847B2 (DANA-FARBER CANCER INSTITUTE, INC., priority 2019, dated 2025)
Like-named read-outs stand apart in the source and are kept apart here.

Experiments:
Assay in all cases: KINOMEscan (ScanMAX) kinase profiling
Type in all cases: binding
panel of 468 kinases [1] = target: T1, panel of 468 kinases (Homo sapiens, UniProt Q9BXA7); conditions: TSSK1B; 1 μM; read-out: % control
T1 construct: purchased KINOMEscan (ScanMAX) service
T1 sequence (Q9BXA7 1-367): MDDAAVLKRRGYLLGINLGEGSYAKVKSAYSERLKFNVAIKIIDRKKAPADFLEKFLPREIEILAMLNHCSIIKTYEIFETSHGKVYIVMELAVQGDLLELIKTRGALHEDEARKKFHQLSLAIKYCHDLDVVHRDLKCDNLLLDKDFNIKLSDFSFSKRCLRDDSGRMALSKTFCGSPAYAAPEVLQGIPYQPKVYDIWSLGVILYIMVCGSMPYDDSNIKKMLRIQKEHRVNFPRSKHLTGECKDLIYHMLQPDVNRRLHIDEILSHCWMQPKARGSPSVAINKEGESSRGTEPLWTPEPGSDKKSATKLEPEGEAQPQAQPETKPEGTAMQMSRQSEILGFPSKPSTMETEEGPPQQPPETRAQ

panel of 468 kinases [2] = target: T2, panel of 468 kinases (Homo sapiens, UniProt Q9HAZ1); conditions: CLK4; 1 μM; read-out: % control
T2 construct: purchased KINOMEscan (ScanMAX) service

panel of 468 kinases [3] = target: T3, panel of 468 kinases (Homo sapiens, UniProt P49674); conditions: CSNK1E; 1 μM; read-out: % control
T3 construct: purchased KINOMEscan (ScanMAX) service

panel of 468 kinases [4] = target: T4, panel of 468 kinases (Homo sapiens, UniProt P00519, Q252H); conditions: 1 μM, read-out: % control
T4 construct: purchased KINOMEscan (ScanMAX) service

panel of 468 kinases [5] = target: T5, panel of 468 kinases (Homo sapiens, UniProt P51813); conditions: BMX; 1 μM; read-out: % control
T5 construct: purchased KINOMEscan (ScanMAX) service
T5 sequence (P51813 1-675): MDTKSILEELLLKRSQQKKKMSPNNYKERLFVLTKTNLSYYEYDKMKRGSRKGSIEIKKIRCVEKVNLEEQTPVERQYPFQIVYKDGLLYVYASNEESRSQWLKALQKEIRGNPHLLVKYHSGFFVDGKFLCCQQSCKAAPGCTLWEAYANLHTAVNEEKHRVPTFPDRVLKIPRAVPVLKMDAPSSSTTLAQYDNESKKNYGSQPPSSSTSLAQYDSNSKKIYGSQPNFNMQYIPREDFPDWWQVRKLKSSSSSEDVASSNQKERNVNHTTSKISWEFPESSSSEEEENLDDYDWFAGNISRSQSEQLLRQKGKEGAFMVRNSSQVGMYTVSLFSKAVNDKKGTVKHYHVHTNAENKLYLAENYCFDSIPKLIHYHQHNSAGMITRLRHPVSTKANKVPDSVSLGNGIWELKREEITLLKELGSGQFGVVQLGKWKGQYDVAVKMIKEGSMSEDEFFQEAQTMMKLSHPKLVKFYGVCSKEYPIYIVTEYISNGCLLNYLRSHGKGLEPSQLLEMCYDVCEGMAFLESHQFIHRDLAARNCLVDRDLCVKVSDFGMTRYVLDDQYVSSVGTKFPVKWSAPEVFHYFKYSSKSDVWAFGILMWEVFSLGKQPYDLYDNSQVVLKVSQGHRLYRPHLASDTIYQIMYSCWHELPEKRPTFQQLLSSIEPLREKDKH

panel of 468 kinases [6] = target: T6, panel of 468 kinases (Homo sapiens, UniProt O00329); conditions: PIK3CD; 1 μM; read-out: % control
T6 construct: purchased KINOMEscan (ScanMAX) service
T6 sequence (O00329 1-1044): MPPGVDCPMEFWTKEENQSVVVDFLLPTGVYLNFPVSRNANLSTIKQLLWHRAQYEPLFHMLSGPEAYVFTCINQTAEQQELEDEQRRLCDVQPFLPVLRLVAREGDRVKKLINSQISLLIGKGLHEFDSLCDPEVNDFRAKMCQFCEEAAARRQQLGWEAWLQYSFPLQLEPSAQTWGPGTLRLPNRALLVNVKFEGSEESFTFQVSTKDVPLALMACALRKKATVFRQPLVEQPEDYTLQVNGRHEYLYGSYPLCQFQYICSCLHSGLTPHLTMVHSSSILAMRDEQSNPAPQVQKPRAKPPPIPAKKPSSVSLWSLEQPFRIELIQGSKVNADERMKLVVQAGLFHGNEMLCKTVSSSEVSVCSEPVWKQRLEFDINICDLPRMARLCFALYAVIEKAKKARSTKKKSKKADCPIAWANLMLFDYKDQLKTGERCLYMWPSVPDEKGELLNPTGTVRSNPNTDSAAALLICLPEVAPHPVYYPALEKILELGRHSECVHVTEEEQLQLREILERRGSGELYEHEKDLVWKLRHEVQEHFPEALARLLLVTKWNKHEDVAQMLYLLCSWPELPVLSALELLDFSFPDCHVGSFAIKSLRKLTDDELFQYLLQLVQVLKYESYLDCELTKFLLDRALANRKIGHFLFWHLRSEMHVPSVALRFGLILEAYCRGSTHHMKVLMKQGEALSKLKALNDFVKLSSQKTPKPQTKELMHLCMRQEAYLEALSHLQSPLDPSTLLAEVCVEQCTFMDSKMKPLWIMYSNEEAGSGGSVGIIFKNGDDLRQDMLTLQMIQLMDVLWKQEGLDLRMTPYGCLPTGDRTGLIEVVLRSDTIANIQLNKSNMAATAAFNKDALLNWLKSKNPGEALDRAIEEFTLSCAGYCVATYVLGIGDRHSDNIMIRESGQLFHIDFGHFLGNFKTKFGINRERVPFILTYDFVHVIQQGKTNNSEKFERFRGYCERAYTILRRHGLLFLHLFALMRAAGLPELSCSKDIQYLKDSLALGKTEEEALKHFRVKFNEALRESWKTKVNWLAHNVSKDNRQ

panel of 468 kinases [7] = target: T7, panel of 468 kinases (Homo sapiens, UniProt O95747); conditions: OSR1; 1 μM; read-out: % control
T7 construct: purchased KINOMEscan (ScanMAX) service

panel of 468 kinases [8] = target: T8, panel of 468 kinases (Homo sapiens, UniProt P51957); conditions: NEK4; 1 μM; read-out: % control
T8 construct: purchased KINOMEscan (ScanMAX) service
T8 sequence (P51957 whole entry): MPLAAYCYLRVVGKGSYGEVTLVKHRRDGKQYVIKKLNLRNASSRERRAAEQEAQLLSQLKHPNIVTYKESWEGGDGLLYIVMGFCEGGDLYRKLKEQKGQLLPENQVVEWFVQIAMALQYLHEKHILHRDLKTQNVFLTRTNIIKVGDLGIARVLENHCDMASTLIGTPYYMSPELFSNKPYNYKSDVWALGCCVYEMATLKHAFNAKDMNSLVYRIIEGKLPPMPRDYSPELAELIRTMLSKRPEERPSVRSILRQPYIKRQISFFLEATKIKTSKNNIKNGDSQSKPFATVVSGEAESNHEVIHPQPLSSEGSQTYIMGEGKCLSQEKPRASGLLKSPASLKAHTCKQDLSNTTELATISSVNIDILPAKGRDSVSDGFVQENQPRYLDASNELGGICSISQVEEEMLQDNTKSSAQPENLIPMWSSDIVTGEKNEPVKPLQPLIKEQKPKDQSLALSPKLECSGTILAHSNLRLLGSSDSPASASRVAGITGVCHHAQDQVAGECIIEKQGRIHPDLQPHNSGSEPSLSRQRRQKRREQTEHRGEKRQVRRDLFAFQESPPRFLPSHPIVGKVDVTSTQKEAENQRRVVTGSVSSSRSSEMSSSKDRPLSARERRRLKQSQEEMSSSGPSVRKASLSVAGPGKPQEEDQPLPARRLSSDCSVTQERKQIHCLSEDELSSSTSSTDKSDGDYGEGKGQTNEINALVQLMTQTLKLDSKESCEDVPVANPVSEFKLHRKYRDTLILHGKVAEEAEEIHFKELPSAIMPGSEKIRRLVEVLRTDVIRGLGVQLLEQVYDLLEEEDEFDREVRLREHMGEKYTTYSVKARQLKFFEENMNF

T7 sequence (O95747 whole entry): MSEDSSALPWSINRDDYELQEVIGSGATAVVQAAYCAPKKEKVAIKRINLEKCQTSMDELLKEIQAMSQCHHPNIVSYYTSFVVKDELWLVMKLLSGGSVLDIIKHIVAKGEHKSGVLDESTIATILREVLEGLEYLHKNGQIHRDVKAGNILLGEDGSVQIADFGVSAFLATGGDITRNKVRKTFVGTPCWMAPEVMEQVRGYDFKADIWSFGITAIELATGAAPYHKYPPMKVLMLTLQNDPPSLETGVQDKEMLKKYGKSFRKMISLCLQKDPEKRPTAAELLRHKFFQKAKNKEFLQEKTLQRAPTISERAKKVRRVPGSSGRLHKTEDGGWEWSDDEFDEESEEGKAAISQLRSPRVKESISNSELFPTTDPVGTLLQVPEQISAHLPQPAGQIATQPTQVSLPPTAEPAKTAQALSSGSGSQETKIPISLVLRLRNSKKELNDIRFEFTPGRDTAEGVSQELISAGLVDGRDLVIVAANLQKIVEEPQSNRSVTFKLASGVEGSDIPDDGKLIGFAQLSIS
T2 sequence (Q9HAZ1 whole entry): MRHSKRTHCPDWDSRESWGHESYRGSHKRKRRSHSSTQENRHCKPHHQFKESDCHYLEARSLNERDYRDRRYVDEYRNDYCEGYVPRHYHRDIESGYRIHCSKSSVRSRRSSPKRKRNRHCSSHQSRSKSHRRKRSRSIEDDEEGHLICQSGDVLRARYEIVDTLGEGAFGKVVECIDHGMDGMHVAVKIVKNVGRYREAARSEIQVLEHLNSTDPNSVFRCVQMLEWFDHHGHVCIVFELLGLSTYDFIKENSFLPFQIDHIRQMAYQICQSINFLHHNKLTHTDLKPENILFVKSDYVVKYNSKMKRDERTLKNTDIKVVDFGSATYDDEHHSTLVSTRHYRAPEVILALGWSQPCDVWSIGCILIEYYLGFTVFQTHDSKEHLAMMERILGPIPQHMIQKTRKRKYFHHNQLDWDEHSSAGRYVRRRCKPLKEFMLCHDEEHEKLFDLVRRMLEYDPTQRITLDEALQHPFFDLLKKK
T3 sequence (P49674 whole entry): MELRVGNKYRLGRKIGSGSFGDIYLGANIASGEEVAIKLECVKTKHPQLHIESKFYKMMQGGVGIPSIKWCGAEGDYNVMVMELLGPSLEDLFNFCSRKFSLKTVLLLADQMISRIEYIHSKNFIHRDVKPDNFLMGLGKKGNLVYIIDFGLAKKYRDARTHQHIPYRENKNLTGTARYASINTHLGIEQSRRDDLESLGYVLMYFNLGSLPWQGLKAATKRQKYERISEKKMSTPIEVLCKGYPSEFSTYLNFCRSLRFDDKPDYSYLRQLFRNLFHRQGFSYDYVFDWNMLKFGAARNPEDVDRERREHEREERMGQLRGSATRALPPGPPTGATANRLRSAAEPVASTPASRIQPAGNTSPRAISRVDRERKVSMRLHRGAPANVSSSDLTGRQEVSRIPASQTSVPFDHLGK

| SMILES | remaining binding at 1 µM (panel of 468 kinases [1]) [%] | remaining binding at 1 µM (panel of 468 kinases [2]) [%] | remaining binding at 1 µM (panel of 468 kinases [3]) [%] | remaining binding at 1 µM (panel of 468 kinases [4]; ABL1(Q252H)-nonphosphorylated) [%] | remaining binding at 1 µM (panel of 468 kinases [4]; ABL1(Q252H)-phosphorylated) [%] | remaining binding at 1 µM (panel of 468 kinases [5]) [%] | remaining binding at 1 µM (panel of 468 kinases [6]) [%] | remaining binding at 1 µM (panel of 468 kinases [7]) [%] | remaining binding at 1 µM (panel of 468 kinases [8]) [%] |
| --- | --- | --- | --- | --- | --- | --- | --- | --- | --- |
| CNc1nc(Nc2ccc(S(=O)(=O)N3CCC(N4CCOCC4)CC3)cc2OC)nc2[nH]cc(Cl)c12 [Compound 12, 5-chloro-N2-(2-methoxy-4-((4-morpholinopiperidin-1-yl)sulfonyl)phenyl)-N4-methyl-7H-pyrrolo[2,3-d]pyrimidine-2,4-diamine] | 72 | 0.75 | 18 | 100 | 79 | 97 | 96 | 31 | 100 |
| CNc1nc(Nc2ccc(C(=O)N3CCC(N4CCOCC4)CC3)c3c2OCO3)nc2[nH]cc(Cl)c12 [Compound 75, (7-((5-chloro-4-(methylamino)-7H-pyrrolo[2,3-d]pyrimidin-2-yl)amino)benzo[d][1,3]dioxol-4-yl)(4-morpholinopiperidin-1-yl)methanone] | 49 | 0.7 | 30 | 100 | 57 | 97 | 96 | 24 | 100 |
| CNc1nc(Nc2ccc(P3(=O)CCN(C4CCOCC4)CC3)cc2OC)nc2[nH]cc(Cl)c12 [Compound 77, 4-(4-((5-chloro-4-(methylamino)-7H-pyrrolo[2,3-d]pyrimidin-2-yl)amino)-3-methoxyphenyl)-1-(tetrahydro-2H-pyran-4-yl)-1,4-azaphosphinane 4-oxide] | 33 | 1.2 | 15 | 100 | 62 | 99 | 92 | 10 | 100 |
